{"source": "patent US7544814B2", "about": "“[3.2.0] Heterocyclic compounds and methods of using the same” (Nereus Pharmaceuticals, Inc., priority 2004, dated 2009)", "key": {"[1]": {"system": "PC-3", "test": "Cell growth inhibition (resazurin), PC-3", "assay_type": "cell-based, human", "conditions": "from EC50 values"}, "[2]": {"system": "NF-κB", "test": "NF-κB-mediated luciferase reporter gene assay, HEK293 NF-κB/Luc cells, TNF-α stimulation", "assay_type": "cell-based, human", "in_short": "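Cells seeded at 1.5×10^4/well in phenol-red free DMEM, pretreated 1 h with 8-point half-log compound dilutions (DMSO stocks), then stimulated with TNF-α (10 μl of 50 ng/ml solution) for 6 h. Luciferase read as RLU after 10 min with Steady Lite reagent at room temperature.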"}, "[3]": {"system": "LeTx-mediated cytotoxicity of RAW 264.7 cells", "conditions": "read-out: EC50 for inhibition of RAW 264.7 cell cytotoxicity mediated by anthrax lethal toxin; 45 minute preincubation, 1 μg/ml LF and PA, six hours; maximum concentration 330 nM"}, "[4]": {"target": "T1, trypsin-like activity of purified rabbit muscle 20S proteasome (Oryctolagus cuniculus, UniProt G1SWK8)", "T1 sequence (G1SWK8 1-271)": "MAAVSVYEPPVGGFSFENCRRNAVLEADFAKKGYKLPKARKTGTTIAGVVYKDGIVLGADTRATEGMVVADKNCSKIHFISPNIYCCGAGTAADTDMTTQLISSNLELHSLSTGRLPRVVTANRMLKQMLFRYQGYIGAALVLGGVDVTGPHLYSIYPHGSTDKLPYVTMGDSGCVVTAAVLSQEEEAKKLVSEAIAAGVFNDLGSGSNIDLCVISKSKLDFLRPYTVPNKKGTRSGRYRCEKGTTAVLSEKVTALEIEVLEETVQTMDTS", "test": "biochemical"}, "[5]": {"system": "U266", "test": "Cell growth inhibition (resazurin), U266", "conditions": "for EC50: 48 hours drug exposure"}, "[6]": {"system": "HT-29", "test": "Cell growth inhibition (resazurin), HT-29", "conditions": "from EC50 values"}, "[7]": {"system": "OVCAR-3", "test": "Cell growth inhibition (resazurin), OVCAR-3"}, "[8]": {"system": "B16-F10", "test": "Cell growth inhibition (resazurin), B16-F10", "conditions": "from EC50 values"}, "[9]": {"system": "NCI-H292", "test": "Cell growth inhibition (resazurin), NCI-H292", "conditions": "from EC50 values"}, "[10]": {"system": "RPMI 8226", "test": "Cell growth inhibition (resazurin), RPMI 8226", "conditions": "for EC50: 48 hours drug exposure"}, "[11]": {"system": "MDA-MB-231", "test": "Cell growth inhibition (resazurin), MDA-MB-231", "conditions": "from EC50 values"}, "[12]": {"target": "T2, caspase-like activity of purified rabbit muscle 20S proteasome (Oryctolagus cuniculus, UniProt A0A5F9DQW2)", "T2 sequence (A0A5F9DQW2 1-212)": "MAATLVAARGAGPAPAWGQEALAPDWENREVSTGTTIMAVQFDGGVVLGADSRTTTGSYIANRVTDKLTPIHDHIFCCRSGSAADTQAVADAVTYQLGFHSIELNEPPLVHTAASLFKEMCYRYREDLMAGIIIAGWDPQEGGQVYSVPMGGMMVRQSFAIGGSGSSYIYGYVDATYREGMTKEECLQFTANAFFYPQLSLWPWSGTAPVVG", "test": "In vitro inhibition of 20S proteasome caspase-like activity (Z-LLE-AMC)"}, "[13]": {"target": "T1, trypsin-like activity of purified rabbit muscle 20S proteasome", "test": "In vitro inhibition of 20S proteasome trypsin-like activity (Boc-LRR-AMC)", "conditions": "under the conditions tested"}, "[14]": {"target": "T3, chymotrypsin-like activity of purified rabbit muscle 20S proteasome (Oryctolagus cuniculus, UniProt G1T4Q9)", "T3 sequence (G1T4Q9 1-263)": "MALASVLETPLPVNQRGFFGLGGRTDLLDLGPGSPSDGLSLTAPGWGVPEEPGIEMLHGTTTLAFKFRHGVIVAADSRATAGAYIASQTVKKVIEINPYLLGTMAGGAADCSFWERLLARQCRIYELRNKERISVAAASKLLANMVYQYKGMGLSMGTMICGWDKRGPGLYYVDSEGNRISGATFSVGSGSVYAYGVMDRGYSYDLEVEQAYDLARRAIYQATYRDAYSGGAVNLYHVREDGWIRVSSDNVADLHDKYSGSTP", "test": "In vitro inhibition of 20S proteasome chymotrypsin-like activity (suc-LLVY-AMC)", "conditions": "EC50 Chymotrypsin-like, Table 6, values in nM"}, "[15]": {"test": "Stability in solution", "assay_type": "physicochemical", "conditions": "converted to VI-1B; mixture of II-48 and VI-1B in the ratio of 7:3", "experimental": "The reaction mixture was stirred at room temperature for about 3 hours. The solvent was evaporated from the reaction mixture to yield the compound of Formula II-48, which was purified by reversed phase HPLC using Ace 5u C18 column (150 mm×22 mm ID) with a solvent gradient of 10% to 70% H2O/Acetonitrile over 15 min, 70 to 100% Acetonitrile over 5 min, holding at 100% Acetonitrile for 4 min, at a flow rate of 14.5 ml/min. Diode array detector was used to monitor the purification process. Compound II-48 (10 mg) eluted as a pure compound at 8.255 min. […] Compound VI-1B: UV (Acetonitrile/H2O) λmax 235 (sh) nm; ESMS, m/z 585.2 (M+H)^−."}}, "note": "Values joined by “and” are separate entries in the source; they are usually repeats but may differ in a detail not shown here. Identical values can stand only once. Like-named read-outs stand apart in the source and are kept apart here.", "data": [{"smiles": "C[C@@]12OC(=O)[C@]1([C@@H](O)[C@H]1CCCC3OC31)NC(=O)[C@@H]2CCCl", "note": "(single isomer, unassigned) [Formula II-5A]", "values": [{"measurement": "cytotoxicity against PC-3, in words", "setting": "[1]", "value": "cytotoxic"}, {"measurement": "effect on luciferase activity upon TNF-α stimulation, in words", "setting": "[2]; pretreatment of NF-κB/Luc 293 cells", "value": "dose-dependent decrease"}, {"measurement": "EC50", "setting": "[2]; read-out: EC50, NF-κB-mediated luciferase reporter gene assay, Table 5, values in nM, 1 hr pretreatment, TNF-α 6 hr", "value": 33, "unit": "nM"}, {"measurement": "EC50", "setting": "[3]", "value": 0.003, "unit": "µM"}, {"measurement": "EC50", "setting": "[4]", "value": 0.09, "unit": "µM"}, {"measurement": "cytotoxicity against U266, in words", "setting": "[5]; from EC50 values", "value": "cytotoxic"}, {"measurement": "EC50", "setting": "[5]; read-out: EC50 against U266, Table 1", "value": 0.009, "unit": "µM"}, {"measurement": "EC50", "setting": "[5]; read-out: U266 EC50, Table 2", "value": "0.01 µM and 0.009 µM"}, {"measurement": "cytotoxicity against HT-29, in words", "setting": "[6]", "value": "cytotoxic"}, {"measurement": "cytotoxicity against OVCAR-3, in words", "setting": "[7]; from EC50 values", "value": "cytotoxic"}, {"measurement": "EC50", "setting": "[7]; read-out: EC50 against OVCAR-3, Table 1, 48 hours drug exposure", "value": 0.064, "unit": "µM"}, {"measurement": "cytotoxicity against B16-F10, in words", "setting": "[8]", "value": "cytotoxic"}, {"measurement": "cytotoxicity against NCI-H292, in words", "setting": "[9]", "value": "cytotoxic"}, {"measurement": "cytotoxicity against RPMI 8226, in words", "setting": "[10]; from EC50 values", "value": "cytotoxic"}, {"measurement": "EC50", "setting": "[10]; read-out: EC50 against RPMI 8226, Table 1", "value": 0.029, "unit": "µM"}, {"measurement": "EC50", "setting": "[10]; read-out: RPMI 8226 EC50, Table 2, mean ± SD where n≥3", "value": "0.036 µM and 0.029 µM"}, {"measurement": "cytotoxicity against MDA-MB-231, in words", "setting": "[11]", "value": "cytotoxic"}, {"measurement": "EC50", "setting": "[12]; EC50 Caspase-like, Table 6, values in nM", "value": "535 nM and 438 nM"}, {"measurement": "EC50", "setting": "[12]; EC50 values, caspase-like activity, summary of Table 6", "value": "213 to 850", "unit": "nM"}, {"measurement": "inhibition of the trypsin-like activity of the 20S proteasome, in words", "setting": "[13]", "value": "able to inhibit"}, {"measurement": "EC50", "setting": "[14]", "value": "6 nM and 7 nM"}]}, {"smiles": "C[C@]1(O)[C@@H](CCCl)C(=O)N[C@]1(C(=O)SCC(NC(=O)CCC(N)C(=O)O)C(=O)NCC(=O)O)[C@@H](O)[C@@H]1C=CCCC1", "note": "(stereo partly shown) [Formula II-48]", "values": [{"measurement": "stability in solution", "setting": "[15]", "value": "unstable in solution"}]}]}
